Reference: patent US10597388B2, “Pyridazinone herbicides” (FMC CORPORATION, priority 2014, dated 2020)

Legend:
Experiment in all cases: Test C greenhouse herbicide test, pre- and postemergence
Format in all cases: in vivo
[1] = system: crabgrass, large (large crabgrass, Digitaria sanguinalis)
Procedure, shortened: (§1)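 Pre- and postemergence greenhouse screen; values are visual control ratings, 0 meaning no effect and 100 complete kill, assigned relative to untreated plants after 13 to 15 d.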

[2] = system: pigweed (Amaranthus retroflexus)
Procedure, shortened: as §1

[3] = system: nutsedge, yellow (yellow nutsedge, Cyperus esculentus)
Procedure, shortened: as §1

[4] = system: ragweed (common ragweed, Ambrosia elatior)
Procedure, shortened: as §1

[5] = system: velvetleaf (Abutilon theophrasti)
Procedure, shortened: as §1

[6] = system: barnyardgrass (Echinochloa crus-galli)
Procedure, shortened: as §1

[7] = system: oilseed rape (Brassica napus)
Procedure, shortened: as §1

[8] = system: morningglory (Ipomoea coccinea)
Procedure, shortened: as §1

[9] = system: blackgrass (Alopecurus myosuroides)
Procedure, shortened: as §1

[10] = system: lambsquarters (Chenopodium album)
Procedure, shortened: as §1

[11] = system: galium (catchweed bedstraw, Galium aparine)
Procedure, shortened: as §1

[12] = system: waterhemp (common waterhemp, Amaranthus rudis)
Procedure, shortened: as §1

[13] = system: wheat (winter wheat, Triticum aestivum)
Procedure, shortened: as §1

[14] = system: foxtail, giant (giant foxtail, Setaria faberii)
Procedure, shortened: as §1

[15] = system: johnsongrass (Sorghum halepense)
Procedure, shortened: as §1

[16] = system: soybean (Glycine max)
Procedure, shortened: as §1

[17] = Postemergence, 31 g ai/ha, scale 0 to 100 (0 no effect, 100 complete control)
[18] = Postemergence, 62 g ai/ha, 0 to 100 scale (0 no effect, 100 complete control)
[19] = Postemergence, 250 g ai/ha, scale 0 to 100, 0 no effect, 100 complete control, 13 to 15 d
[20] = Preemergence, 31 g ai/ha, scale 0 to 100, 0 is no effect, 100 is complete control
[21] = Preemergence, 62 g ai/ha, scale 0 to 100, 0 is no effect, 100 is complete control
[22] = Preemergence, 125 g ai/ha, scale 0 to 100, 0 is no effect, 100 is complete control
[23] = Preemergence, 250 g ai/ha, scale 0 to 100 (0 no effect, 100 complete control)
[24] = postemergence, 125 g ai/ha, scale 0 to 100, 0 no effect, 100 complete control

CC(=O)Oc1c(C)nn(C)c(=O)c1-c1c(C)cc(C)c2ccccc12 [Compound 153]
50: Crabgrass, Large plant response rating [1, 18] | Crabgrass, Large plant response rating [1, 24] | Wheat plant response rating [13, 23] | Plant response rating, Johnsongrass [15, 21]
20: Wheat plant response rating [13, 18] | Plant response rating, Soybean [16, 20] | Plant response rating, Soybean [16, 22]
80: Plant response rating, Crabgrass, Large [1, 20] | Plant response rating, Nutsedge, Yellow [3, 20] | Plant response rating, Nutsedge, Yellow [3, 22] | Plant response rating, Blackgrass [9, 17] | Plant response rating, Waterhemp [12, 20] | Plant response rating, Foxtail, Giant [14, 17]
98: Plant response rating, Crabgrass, Large [1, 22] | Plant response rating, Ragweed [4, 22] | Plant response rating, Oilseed Rape [7, 22] | Plant response rating, Morningglory [8, 17] | Plant response rating, Morningglory [8, 22] | Morningglory plant response rating [8, 23] | Morningglory plant response rating [8, 24] | Lambsquarters plant response rating [10, 23] | Plant response rating, Galium [11, 19] | Plant response rating, Galium [11, 21] | Galium plant response rating [11, 24] | Plant response rating, Foxtail, Giant [14, 20]
15: Plant response rating, Wheat [13, 17] | Plant response rating, Johnsongrass [15, 19]
70: Plant response rating, Ragweed [4, 17] | Plant response rating, Barnyardgrass ([6]; Postemergence, 125 g ai/ha, scale 0 to 100, 0 is no effect, 100 is complete control) | Plant response rating, Waterhemp [12, 17] | Johnsongrass plant response rating [15, 23]
95: Nutsedge, Yellow plant response rating [3, 23] | Nutsedge, Yellow plant response rating [3, 24] | Plant response rating, Ragweed [4, 20] | Plant response rating, Ragweed [4, 21] | Ragweed plant response rating [4, 24] | Plant response rating, Velvetleaf [5, 19] | Plant response rating, Velvetleaf [5, 22] | Plant response rating, Oilseed Rape [7, 20] | Plant response rating, Morningglory [8, 20] | Plant response rating, Blackgrass [9, 22] | Blackgrass plant response rating [9, 23] | Plant response rating, Lambsquarters [10, 19] | Plant response rating, Lambsquarters [10, 20] | Lambsquarters plant response rating [10, 24] | Plant response rating, Galium [11, 17] | Galium plant response rating [11, 18] | Plant response rating, Galium [11, 20] | Plant response rating, Waterhemp [12, 21] | Plant response rating, Waterhemp [12, 22] | Plant response rating, Foxtail, Giant [14, 19]
5: Johnsongrass plant response rating [15, 18] | Plant response rating, Soybean [16, 17] | Plant response rating, Soybean [16, 19]
60: Barnyardgrass plant response rating [6, 18]
25: Plant response rating, Johnsongrass [15, 20]
0: Plant response rating, Wheat [13, 20]
65: Waterhemp plant response rating [12, 18] | Plant response rating, Johnsongrass [15, 22]
10: Plant response rating, Wheat [13, 19] | Plant response rating, Wheat [13, 21] | Wheat plant response rating [13, 24] | Plant response rating, Johnsongrass [15, 17] | Johnsongrass plant response rating [15, 24] | Soybean plant response rating [16, 18] | Plant response rating, Soybean [16, 21] | Soybean plant response rating [16, 24]
55: Plant response rating, Crabgrass, Large [1, 17]
40: Plant response rating, Barnyardgrass [6, 17]
75: Plant response rating, Crabgrass, Large [1, 19] | Pigweed plant response rating [2, 18]
85: Plant response rating, Pigweed [2, 17] | Plant response rating, Pigweed [2, 19] | Pigweed plant response rating [2, 24] | Plant response rating, Nutsedge, Yellow [3, 17] | Plant response rating, Nutsedge, Yellow [3, 21] | Plant response rating, Velvetleaf [5, 17] | Velvetleaf plant response rating [5, 18] | Plant response rating, Velvetleaf [5, 20] | Plant response rating, Barnyardgrass [6, 20] | Blackgrass plant response rating [9, 18] | Plant response rating, Lambsquarters [10, 17] | Foxtail, Giant plant response rating [14, 18]
100: Plant response rating, Crabgrass, Large [1, 21] | Crabgrass, Large plant response rating [1, 23] | Plant response rating, Pigweed [2, 20] | Plant response rating, Pigweed [2, 21] | Plant response rating, Pigweed [2, 22] | Pigweed plant response rating [2, 23] | Ragweed plant response rating [4, 23] | Plant response rating, Barnyardgrass [6, 21] | Plant response rating, Barnyardgrass [6, 22] | Barnyardgrass plant response rating [6, 23] | Plant response rating, Oilseed Rape [7, 21] | Oilseed Rape plant response rating [7, 23] | Morningglory plant response rating [8, 18] | Plant response rating, Morningglory [8, 19] | Plant response rating, Lambsquarters [10, 21] | Plant response rating, Lambsquarters [10, 22] | Plant response rating, Galium [11, 22] | Galium plant response rating [11, 23] | Waterhemp plant response rating [12, 23] | Plant response rating, Foxtail, Giant [14, 21] | Plant response rating, Foxtail, Giant [14, 22] | Foxtail, Giant plant response rating [14, 23]
30: Plant response rating, Wheat [13, 22]
45: Soybean plant response rating [16, 23]
90: Nutsedge, Yellow plant response rating [3, 18] | Plant response rating, Nutsedge, Yellow [3, 19] | Ragweed plant response rating [4, 18] | Plant response rating, Ragweed [4, 19] | Plant response rating, Velvetleaf [5, 21] | Velvetleaf plant response rating [5, 23] | Velvetleaf plant response rating [5, 24] | Plant response rating, Barnyardgrass [6, 19] | Plant response rating, Oilseed Rape [7, 17] | Oilseed Rape plant response rating [7, 18] | Plant response rating, Oilseed Rape [7, 19] | Oilseed Rape plant response rating [7, 24] | Plant response rating, Morningglory [8, 21] | Plant response rating, Blackgrass [9, 19] | Plant response rating, Blackgrass [9, 20] | Plant response rating, Blackgrass [9, 21] | Blackgrass plant response rating [9, 24] | Lambsquarters plant response rating [10, 18] | Plant response rating, Waterhemp [12, 19] | Waterhemp plant response rating [12, 24] | Foxtail, Giant plant response rating [14, 24]
